# US20140058103A1, “Inhibitors of PI3K-Delta and Methods of Their Use and Manufacture” (Exelixis, Inc., priority 2010, published 2014)
# Molecular target: PI3K delta (Homo sapiens, UniProt O00329)
# Test: Luciferase-coupled chemiluminescence kinase assay (ATP consumption, KinaseGlo)
# Format: biochemical
# Method in brief: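 ATP consumption measured by KinaseGlo luciferase chemiluminescence after a 2 h reaction at ambient temperature, with ATP at or below the kinase KM. Ten inhibitor concentrations per curve; IC50 from four-parameter nonlinear regression.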
# Chain of PI3K delta (O00329 whole entry): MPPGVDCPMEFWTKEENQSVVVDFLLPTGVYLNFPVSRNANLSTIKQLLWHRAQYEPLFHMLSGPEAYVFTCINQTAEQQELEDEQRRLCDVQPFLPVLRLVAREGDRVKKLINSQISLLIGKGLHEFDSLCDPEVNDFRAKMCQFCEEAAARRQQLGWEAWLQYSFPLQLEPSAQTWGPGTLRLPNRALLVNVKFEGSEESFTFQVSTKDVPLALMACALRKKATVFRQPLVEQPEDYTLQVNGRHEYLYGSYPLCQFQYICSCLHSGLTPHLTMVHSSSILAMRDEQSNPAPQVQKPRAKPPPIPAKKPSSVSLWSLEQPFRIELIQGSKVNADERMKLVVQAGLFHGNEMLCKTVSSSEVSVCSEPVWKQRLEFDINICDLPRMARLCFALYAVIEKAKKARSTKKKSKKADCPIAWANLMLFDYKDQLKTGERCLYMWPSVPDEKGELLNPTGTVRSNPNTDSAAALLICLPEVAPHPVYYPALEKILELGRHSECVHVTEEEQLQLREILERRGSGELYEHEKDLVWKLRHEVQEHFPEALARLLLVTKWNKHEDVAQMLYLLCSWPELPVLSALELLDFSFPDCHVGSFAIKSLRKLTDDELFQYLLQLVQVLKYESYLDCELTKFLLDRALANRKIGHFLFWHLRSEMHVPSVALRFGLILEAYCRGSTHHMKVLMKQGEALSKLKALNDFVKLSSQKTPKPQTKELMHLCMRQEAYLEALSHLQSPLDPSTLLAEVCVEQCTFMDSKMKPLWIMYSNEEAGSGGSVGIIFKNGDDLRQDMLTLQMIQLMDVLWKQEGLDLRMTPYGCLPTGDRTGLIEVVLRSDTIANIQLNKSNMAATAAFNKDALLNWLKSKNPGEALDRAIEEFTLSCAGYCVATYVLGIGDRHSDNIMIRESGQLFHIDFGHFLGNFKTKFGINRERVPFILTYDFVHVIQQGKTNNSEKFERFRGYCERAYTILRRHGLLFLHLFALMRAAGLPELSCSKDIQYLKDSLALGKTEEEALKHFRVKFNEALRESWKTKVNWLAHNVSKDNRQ
# Chain of PI3K delta (P27986 whole entry partner): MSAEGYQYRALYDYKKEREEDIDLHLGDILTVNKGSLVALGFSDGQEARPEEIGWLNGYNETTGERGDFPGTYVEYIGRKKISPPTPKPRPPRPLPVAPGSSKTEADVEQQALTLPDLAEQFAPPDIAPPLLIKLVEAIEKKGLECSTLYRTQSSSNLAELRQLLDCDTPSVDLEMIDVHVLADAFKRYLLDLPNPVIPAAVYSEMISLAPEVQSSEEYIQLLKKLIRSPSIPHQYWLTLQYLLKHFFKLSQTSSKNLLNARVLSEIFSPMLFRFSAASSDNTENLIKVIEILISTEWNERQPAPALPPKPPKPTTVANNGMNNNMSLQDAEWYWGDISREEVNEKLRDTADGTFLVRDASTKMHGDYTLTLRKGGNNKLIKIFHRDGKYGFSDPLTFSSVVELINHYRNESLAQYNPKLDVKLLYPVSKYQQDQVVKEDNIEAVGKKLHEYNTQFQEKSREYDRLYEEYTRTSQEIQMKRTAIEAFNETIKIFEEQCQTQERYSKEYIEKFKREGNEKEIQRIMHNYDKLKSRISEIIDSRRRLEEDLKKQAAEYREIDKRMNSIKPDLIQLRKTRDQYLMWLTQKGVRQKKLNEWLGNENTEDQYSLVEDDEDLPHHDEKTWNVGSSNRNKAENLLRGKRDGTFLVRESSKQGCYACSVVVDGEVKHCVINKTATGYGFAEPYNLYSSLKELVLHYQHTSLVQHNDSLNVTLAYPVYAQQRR
row,IC50 [nM],Compound
1,50 to 250,"Cn1c(C(=O)NCC2CCOCC2)nc2c(N3CCC4(CC3)C(=O)Nc3ccccc34)ncnc21 [Compound 77, 9-methyl-6-(2-oxo-1,2-dihydro-1′H-spiro[indole-3,4′-piperidin]-1′-yl)-N-(tetrahydro-2H-pyran-4-ylmethyl)-9H-purine-8-carboxamide]"
2,500 to 1500,"COC(=O)c1nc2c(N3CCC(n4c(=O)[nH]c5ccccc54)CC3)ncnc2n1C [Compound 78, Methyl 9-methyl-6-[4-(2-oxo-2,3-dihydro-1H-benzimidazol-1-yl)piperidin-1-yl]-9H-purine-8-carboxylate]"
3,50 to 250,"Cn1c(C(=O)OCC2CC2)nc2c(N3CCC(n4c(=O)[nH]c5ccccc54)CC3)ncnc21 [Compound 79, Cyclopropylmethyl 9-methyl-6-[4-(2-oxo-2,3-dihydro-1H-benzimidazol-1-yl)piperidin-1-yl]-9H-purine-8-carboxylate]"
4,500 to 1500,"CCOC(=O)c1nc2c(N3CCC(n4c(=O)[nH]c5ccccc54)CC3)ncnc2n1C [Compound 80, Ethyl 9-methyl-6-[4-(2-oxo-2,3-dihydro-1H-benzimidazol-1-yl)piperidin-1-yl]-9H-purine-8-carboxylate]"
5,500 to 1500,"Cc1nc2c(N3CCC(n4c(=O)[nH]c5ccccc54)CC3)ncnc2n1C [Compound 81, 1-[1-(8,9-Dimethyl-9H-purin-6-yl)piperidin-4-yl]-1,3-dihydro-2H-benzimidazol-2-one]"
6,500 to 1500,"Cn1c(C(=O)NCC2CCCCO2)nc2c(N3CCC4(CC3)C(=O)Nc3ccccc34)ncnc21 (stereo not drawn) [Compound 82, 9-methyl-6-(2-oxo-1,2-dihydro-1′H-spiro[indole-3,4′-piperidin]-1′-yl)-N-(tetrahydro-2H-pyran-2-ylmethyl)-9H-purine-8-carboxamide]"
7,50 to 250,"Cn1c(C(=O)NCC(C)(C)O)nc2c(N3CCC4(CC3)C(=O)Nc3ccccc34)ncnc21 [Compound 83, N-(2-hydroxy-2-methylpropyl)-9-methyl-6-(2-oxo-1,2-dihydro-1′H-spiro[indole-3,4′-piperidin]-1′-yl)-9H-purine-8-carboxamide]"
8,50 to 250,"CC(NC(=O)c1nc2c(N3CCC4(CC3)C(=O)Nc3ccccc34)ncnc2n1C)C1CC1 (stereo not drawn) [Compound 84, N-(1-cyclopropylethyl)-9-methyl-6-(2-oxo-1,2-dihydro-1′H-spiro[indole-3,4′-piperidin]-1′-yl)-9H-purine-8-carboxamide]"
9,500 to 1500,"Cn1c(C(=O)NCC2CCCO2)nc2c(N3CCC4(CC3)C(=O)Nc3ccccc34)ncnc21 (stereo not drawn) [Compound 85, 9-methyl-6-(2-oxo-1,2-dihydro-1′H-spiro[indole-3,4′-piperidin]-1′-yl)-N-(tetrahydrofuran-2-ylmethyl)-9H-purine-8-carboxamide]"
10,50 to 250,"Cn1c(C(=O)NC2CCOCC2)nc2c(N3CCC4(CC3)C(=O)Nc3ccccc34)ncnc21 [Compound 86, 9-methyl-6-(2-oxo-1,2-dihydro-1′H-spiro[indole-3,4′-piperidin]-1′-yl)-N-(tetrahydro-2H-pyran-4-yl)-9H-purine-8-carboxamide]"
11,< 50,"Cn1c(C(=O)N[C@H]2CC[C@H](O)CC2)nc2c(N3CCC4(CC3)C(=O)Nc3ccccc34)ncnc21 [Compound 87, N-(trans-4-hydroxycyclohexyl)-9-methyl-6-(2-oxo-1,2-dihydro-1′H-spiro[indole-3,4′-piperidin]-1′-yl)-9H-purine-8-carboxamide]"
12,500 to 1500,"Cn1c(C(=O)NCC2CCCCC2)nc2c(N3CCC4(CC3)C(=O)Nc3ccccc34)ncnc21 [Compound 88, N-(cyclohexylmethyl)-9-methyl-6-(2-oxo-1,2-dihydro-1′H-spiro[indole-3,4′-piperidin]-1′-yl)-9H-purine-8-carboxamide]"
13,50 to 250,"Cn1c(C(=O)NCC2CCC2)nc2c(N3CCC4(CC3)C(=O)Nc3ccccc34)ncnc21 [Compound 89, N-(cyclobutylmethyl)-9-methyl-6-(2-oxo-1,2-dihydro-1′H-spiro[indole-3,4′-piperidin]-1′-yl)-9H-purine-8-carboxamide]"
14,250 to 500,"Cn1c(C(=O)N2CCC2)nc2c(N3CCC4(CC3)C(=O)Nc3ccccc34)ncnc21 [Compound 90, 1′-[8-(azetidin-1-ylcarbonyl)-9-methyl-9H-purin-6-yl]spiro[indole-3,4′-piperidin]-2(1H)-one]"
15,500 to 1500,"CNC(=O)c1nc2c(N3CCC(n4c(=O)[nH]c5ccccc54)CC3)ncnc2n1C [Compound 91, N,9-dimethyl-6-[4-(2-oxo-2,3-dihydro-1H-benzimidazol-1-yl)piperidin-1-yl]-9H-purine-8-carboxamide]"
16,500 to 1500,"CCc1nc2c(N3CCC(n4c(=O)[nH]c5ccccc54)CC3)ncnc2n1C [Compound 92, 1-[1-(8-ethyl-9-methyl-9H-purin-6-yl)piperidin-4-yl]-1,3-dihydro-2H-benzimidazol-2-one]"

row,IC50 [nM],Compound
1,500 to 1500,"CCCCc1nc2c(N3CCC(n4c(=O)[nH]c5ccccc54)CC3)ncnc2n1C [Compound 93, 1-[1-(8-butyl-9-methyl-9H-purin-6-yl)piperidin-4-yl]-1,3-dihydro-2H-benzimidazol-2-one]"
2,500 to 1500,"CON(C)C(=O)c1nc2c(N3CCC(n4c(=O)[nH]c5ccccc54)CC3)ncnc2n1C [Compound 94, N,9-dimethyl-N-(methyloxy)-6-[4-(2-oxo-2,3-dihydro-1H-benzimidazol-1-yl)piperidin-1-yl]-9H-purine-8-carboxamide]"
3,50 to 250,"Cn1c(C(=O)NCC(C)(C)C)nc2c(N3CCC4(CC3)C(=O)Nc3ccccc34)ncnc21 [Compound 96, N-(2,2-dimethylpropyl)-9-methyl-6-(2-oxo-1,2-dihydro-1′H-spiro[indole-3,4′-piperidin]-1′-yl)-9H-purine-8-carboxamide]"
4,< 50,"CCn1c(C(=O)NCC2CC2)nc2c(N3CCC(n4c(=O)[nH]c5ccccc54)CC3)ncnc21 [Compound 97, N-(cyclopropylmethyl)-9-ethyl-6-[4-(2-oxo-2,3-dihydro-1H-benzimidazol-1-yl)piperidin-1-yl]-9H-purine-8-carboxamide]"
5,500 to 1500,"Cn1c(C(=O)NCC2CC2)nc2c(N3CCC4(C3)C(=O)Nc3ccccc34)ncnc21 (stereo not drawn) [Compound 98, N-(cyclopropylmethyl)-9-methyl-6-(2-oxo-1,2-dihydro-1′H-spiro[indole-3,3′-pyrrolidin]-1′-yl)-9H-purine-8-carboxamide]"
6,500 to 1500,"Cn1c(C(=O)NCC2CC2)nc2c(N3CCC4(CC3)C(=O)NCC4c3ccccc3)ncnc21 (stereo not drawn) [Compound 99, N-(cyclopropylmethyl)-9-methyl-6-(1-oxo-4-phenyl-2,8-diazaspiro[4.5]dec-8-yl)-9H-purine-8-carboxamide]"
7,500 to 1500,"Cn1c(C(=O)NCC2CC2)nc2c(N3CCC(c4c[nH]c5ccccc45)CC3)ncnc21 [Compound 100, N-(cyclopropylmethyl)-6-[4-(1H-indol-3-yl)piperidin-1-yl]-9-methyl-9H-purine-8-carboxamide]"
8,250 to 500,"Cn1c(C(=O)NCC2CC2)nc2c(N3CCC(n4c(C(F)(F)F)nc5ccccc54)CC3)ncnc21 [Compound 101, N-(cyclopropylmethyl)-9-methyl-6-{4-[2-(trifluoromethyl)-1H-benzimidazol-1-yl]piperidin-1-yl}-9H-purine-8-carboxamide]"
9,50 to 250,"Cc1nnc(-c2nc3c(N4CCC(n5c(=O)[nH]c6ccccc65)CC4)ncnc3n2C)o1 [Compound 102, 1-{1-[9-methyl-8-(5-methyl-1,3,4-oxadiazol-2-yl)-9H-purin-6-yl]piperidin-4-yl}-1,3-dihydro-2H-benzimidazol-2-one]"
10,50 to 250,"Cn1c(C(=O)N2CC(F)(F)C2)nc2c(N3CCC4(CC3)C(=O)Nc3ccccc34)ncnc21 [Compound 103, 1′-{8-[(3,3-difluoroazetidin-1-yl)carbonyl]-9-methyl-9H-purin-6-yl}spiro[indole-3,4′-piperidin]-2(1H)-one]"
11,50 to 250,"Cn1c(C(=O)N2CC(F)(F)C2)nc2c(N3CCC(n4c(=O)[nH]c5ccccc54)CC3)ncnc21 [Compound 104, 1-(1-{8-[(3,3-difluoroazetidin-1-yl)carbonyl]-9-methyl-9H-purin-6-yl}piperidin-4-yl)-1,3-dihydro-2H-benzimidazol-2-one]"
12,50 to 250,"Cn1c(C(=O)NC2CCC(F)(F)CC2)nc2c(N3CCC4(CC3)C(=O)Nc3ccccc34)ncnc21 [Compound 105, N-(4,4-difluorocyclohexyl)-9-methyl-6-(2-oxo-1,2-dihydro-1′H-spiro[indole-3,4′-piperidin]-1′-yl)-9H-purine-8-carboxamide]"
13,50 to 250,"Cn1c(C(=O)N2CCC(F)(F)C2)nc2c(N3CCC4(CC3)C(=O)Nc3ccccc34)ncnc21 [Compound 106, 1′-{8-[(3,3-difluoropyrrolidin-1-yl)carbonyl]-9-methyl-9H-purin-6-yl}spiro[indole-3,4′-piperidin]-2(1H)-one]"
14,50 to 250,"Cn1c(C(=O)NC2CCC(F)(F)CC2)nc2c(N3CCC(n4c(=O)[nH]c5ccccc54)CC3)ncnc21 [Compound 107, N-(4,4-difluorocyclohexyl)-9-methyl-6-[4-(2-oxo-2,3-dihydro-1H-benzimidazol-1-yl)piperidin-1-yl]-9H-purine-8-carboxamide]"
15,50 to 250,"Cn1c(C(=O)N2CCC(F)(F)C2)nc2c(N3CCC(n4c(=O)[nH]c5ccccc54)CC3)ncnc21 [Compound 108, 1-(1-{8-[(3,3-difluoropyrrolidin-1-yl)carbonyl]-9-methyl-9H-purin-6-yl}piperidin-4-yl)-1,3-dihydro-2H-benzimidazol-2-one]"
16,50 to 250,"Cn1c(C(=O)N2CC[C@H](F)C2)nc2c(N3CCC4(CC3)C(=O)Nc3ccccc34)ncnc21 [Compound 109, 1′-(8-{[(3S)-3-fluoropyrrolidin-1-yl]carbonyl}-9-methyl-9H-purin-6-yl)spiro[indole-3,4′-piperidin]-2(1H)-one]"

row,Compound,IC50 [nM]
1,"CC(=O)c1nc2c(N3CCC(n4c(=O)[nH]c5ccccc54)CC3)ncnc2n1C [Compound 95, 1-[1-(8-Acetyl-9-methyl-9H-purin-6-yl)piperidin-4-yl]-1,3-dihydro-2H-benzimidazol-2-one]",250 to 500
